Experimental data reported in PubChem BioAssay (NCI).
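A five-concentration, 48-hour dose response in 96-well plates underlies each endpoint, interpolated linearly between surrounding concentrations. At the GI50, growth is halved. TGI: concentration producing complete growth inhibition.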

Experiments:
Assay in all cases: NCI tumour cell line growth inhibition, 48 h
[1] = system: RPMI-8226 leukemia
[2] = system: OVCAR-8 ovarian
[3] = system: A498 renal
[4] = system: HT29 colon
[5] = system: T-47D breast
[6] = system: NCI-H460 lung
[7] = system: SF-539 CNS
[8] = system: SK-MEL-2 melanoma
[9] = system: MDA-MB-435
[10] = system: KM12 colon
[11] = system: NCI-H23 lung
[12] = system: OVCAR-3 ovarian
[13] = system: U251 CNS
[14] = system: UO-31 renal
[15] = system: HS 578T breast
[16] = system: LOX IMVI melanoma
[17] = system: SF-268 CNS
[18] = system: DU-145 prostate
[19] = system: 786-0 renal
[20] = system: PC-3 prostate
[21] = system: ACHN renal
[22] = system: M14 melanoma
[23] = system: NCI-H226 lung
[24] = system: RXF 393 renal
[25] = system: UACC-257 melanoma
[26] = system: EKVX NSCLC
[27] = system: MOLT-4 leukemia
[28] = system: MDA-MB-231 breast
[29] = system: SN12C renal
[30] = system: COLO 205 colon
[31] = system: HL-60(TB) leukemia
[32] = system: MCF7 breast
[33] = system: A549 NSCLC
[34] = system: HOP-62 NSCLC
[35] = system: UACC-62 melanoma
[36] = system: SR leukemia
[37] = system: SK-OV-3 ovarian
[38] = system: NCI-H522 lung
[39] = system: HCT-15 colon
[40] = system: SW-620 colon
[41] = system: IGROV1 ovarian
[42] = system: TK-10 renal
[43] = system: HCC-2998 colon
[44] = system: K-562 leukemia
[45] = system: HCT-116 colon
[46] = system: MALME-3M melanoma
[47] = system: OVCAR-5 ovarian
[48] = system: BT-549 breast
[49] = system: SNB-75 CNS
[50] = system: SNB-19 CNS
[51] = system: MDA-MB-468 breast
[52] = system: SK-MEL-28 melanoma
[53] = system: SF-295 CNS
[54] = system: HOP-92 NSCLC
[55] = system: CAKI-1 renal
[56] = system: OVCAR-4 ovarian
[57] = system: SK-MEL-5 melanoma
[58] = system: CCRF-CEM leukemia

## COc1ccccc1[C@H]1C(C(=O)c2ccc(Cl)cc2)C2(N[C@@H]1c1ccccc1)C(=O)Nc1ccccc12 (stereo partly specified)
[1]
  GI50: 2.06 µM
  TGI: 21.9 µM
[2]
  GI50: 1.94 µM
  TGI: 8.55 µM
[3]
  GI50: 4.75 µM
  TGI: 18 µM
[4]
  GI50: 1.49 µM
  TGI: 4.1 µM
[5]
  GI50: 1.97 µM
  TGI: 44.1 µM
[6]
  GI50: 1.21 µM
  TGI: 2.89 µM
[7]
  GI50: 2.83 µM
  TGI: 10.5 µM
[8]
  GI50: 1.73 µM
  TGI: 6.06 µM
[9]
  GI50: 1.48 µM
  TGI: 3.73 µM
[10]
  GI50: 2.45 µM
  TGI: 14.6 µM
[11]
  GI50: 1.83 µM
  TGI: 8.71 µM
[12]
  GI50: 2.19 µM
  TGI: 12.1 µM
[13]
  GI50: 1.81 µM
  TGI: 7.38 µM
[14]
  GI50: 1.11 µM
  TGI: 12.5 µM
[15]
  GI50: 1.67 µM
  TGI: 10.4 µM
[16]
  GI50: 1.55 µM
  TGI: 6.15 µM
[17]
  GI50: 2.19 µM
  TGI: 29.8 µM
[18]
  GI50: 2.45 µM
  TGI: 24.9 µM
[19]
  GI50: 2.13 µM
  TGI: 10.1 µM
[20]
  GI50: 1.85 µM
  TGI: 13.6 µM
[21]
  GI50: 1.99 µM
  TGI: 22.5 µM
[22]
  GI50: 1.81 µM
  TGI: 7.63 µM
[23]
  GI50: 1.61 µM
  TGI: 9.08 µM
[24]
  GI50: 1.32 µM
  TGI: 3.51 µM
[25]
  GI50: 2.63 µM
  TGI: 14 µM
[26]
  GI50: 2.13 µM
  TGI: 61.5 µM
[27]
  GI50: 1.75 µM
  TGI: 16.1 µM
[28]
  GI50: 1.6 µM
  TGI: 5.79 µM
[29]
  GI50: 1.24 µM
  TGI: 2.9 µM
[30]
  GI50: 2.25 µM
  TGI: 9.75 µM
[31]
  GI50: 1.42 µM
  TGI: 5.48 µM
[32]
  GI50: 1.67 µM
  TGI: 8.88 µM
[33]
  GI50: 1.99 µM
  TGI: 12 µM
[34]
  GI50: 3.86 µM
  TGI: 14 µM
[35]
  GI50: 1.86 µM
  TGI: 8.04 µM
[36]
  GI50: 1.42 µM
  TGI: 4.26 µM
[37]
  GI50: 4.24 µM
  TGI: 55.3 µM
[38]
  GI50: 1.24 µM
  TGI: 4.17 µM
[39]
  GI50: 1.9 µM
  TGI: 11.5 µM
[40]
  GI50: 1.86 µM
  TGI: 24.4 µM
[41]
  GI50: 1.95 µM
  TGI: 11.6 µM
[42]
  GI50: 3.68 µM
  TGI: 33.2 µM
[43]
  GI50: 2.1 µM
  TGI: 7.72 µM
[44]
  GI50: 1.78 µM
  TGI: 44.4 µM
[45]
  GI50: 1.5 µM
  TGI: 4.66 µM
[46]
  GI50: 3.36 µM
  TGI: 12.1 µM
[47]
  GI50: 3.24 µM
  TGI: 19.5 µM
[48]
  GI50: 1.97 µM
  TGI: 6.57 µM
[49]
  GI50: 1.13 µM
  TGI: 13.2 µM
[50]
  GI50: 3.34 µM
  TGI: 61.5 µM
[51]
  GI50: 1.24 µM
  TGI: 3.85 µM
[52]
  GI50: 4.16 µM
  TGI: 13.2 µM
[53]
  GI50: 2.39 µM
  TGI: 12.6 µM
[54]
  GI50: 1.79 µM
  TGI: 5.88 µM
[55]
  GI50: 1.23 µM
  TGI: 51.5 µM
[56]
  GI50: 2.36 µM
  TGI: 31.8 µM
[57]
  GI50: 1.87 µM
  TGI: 6.52 µM
[58]
  GI50: 1.91 µM
  TGI: 8.25 µM
